Test results: PubChem BioAssay AID1224918
pEC50: −log10 of the molar value.

Tested on: MCF7 antiproliferative assay
Assay: PubChem AID 1224918

pEC50: 7.15
Structure (SMILES): COc1cc(-c2nn(CCN3CCC(N(C)C)CC3)c3ncnc(N)c23)ccc1NC(=O)OC(C)(C)C
